Measured values published in ChEMBL document CHEMBL1124526, “Synthesis and biological evaluation of certain 3-beta-D-ribofuranosyl-1,2,4-triazolo[4,3-b)pyridazines related to formycin prepared via ring closure of pyridazine precursors” (J Med Chem, 1989).
Activity calls are given as the source filed them.

How the values were obtained:
CCRF-CEM = test: In vitro ability to inhibit the growth of CCRF-CEM human T-lymphoblastic leukemia; Compound was inactive at 100 uM and 1000 uM respectively.; format: functional, cell-based
Human alphaherpesvirus 2 = test: In vitro antiviral activity against herpes simplex virus type 2 (MS); Compound was inactive at 100 uM and 1000 uM respectively.; format: functional, organism-based
Visna-maedi virus = test: In vitro antiviral activity against vinsa virus (1513); Compound was inactive at 100 uM and 1000 uM respectively.; format: functional, organism-based
Influenza A virus = test: In vitro antiviral activity against influenza A virus (chile); Compound was inactive at 100 uM and 1000 uM respectively.; format: functional, organism-based
Human respirovirus 3 = test: In vitro antiviral activity against parainfluenza virus type 3 (C243); Compound was inactive at 100 uM and 1000 uM respectively.; format: functional, organism-based
Human rhinovirus 1A = test: In vitro antiviral activity against rhino virus type 1-A (2060); Compound was inactive at 100 uM and 1000 uM respectively.; format: functional, organism-based
L1210 = test: In vitro ability to inhibit the growth of L1210 murine lymphocytic leukemia; Compound was inactive at 100 uM and 1000 uM respectively.; format: functional, cell-based; details: Mus musculus
Human adenovirus 2 = test: In vitro antiviral activity against adeno virus type 2; Compound was inactive at 100 uM and 1000 uM respectively.; format: functional, organism-based
Semliki Forest virus = test: In vitro antiviral activity against semliki forest virus (original); Compound was inactive at 100 uM and 1000 uM respectively.; format: functional, organism-based
Homo sapiens = species on record: Homo sapiens; test: In vitro ability to inhibit the growth of WI-L2 human B-lymphoblastic leukemia; Compound was inactive at 100 uM and 1000 uM respectively.; format: functional

Measured: Activity

Nc1ccnn2c([C@@H]3O[C@H](CO)[C@@H](O)[C@H]3O)nnc12
inactive: CCRF-CEM inactive at 100 uM and 1000 uM respectively | Human alphaherpesvirus 2 inactive at 100 uM and 1000 uM respectively | Visna-maedi virus inactive at 100 uM and 1000 uM respectively | Influenza A virus inactive at 100 uM and 1000 uM respectively | Human respirovirus 3 inactive at 100 uM and 1000 uM respectively | Human rhinovirus 1A inactive at 100 uM and 1000 uM respectively | L1210 inactive at 100 uM and 1000 uM respectively | Human adenovirus 2 inactive at 100 uM and 1000 uM respectively | Semliki Forest virus inactive at 100 uM and 1000 uM respectively | Homo sapiens inactive at 100 uM and 1000 uM respectively

Nc1c(Cl)cnn2c([C@@H]3O[C@H](CO)[C@@H](O)[C@H]3O)nnc12
inactive: CCRF-CEM inactive at 100 uM and 1000 uM respectively | Human alphaherpesvirus 2 inactive at 100 uM and 1000 uM respectively | Visna-maedi virus inactive at 100 uM and 1000 uM respectively | Influenza A virus inactive at 100 uM and 1000 uM respectively | Human respirovirus 3 inactive at 100 uM and 1000 uM respectively | Human rhinovirus 1A inactive at 100 uM and 1000 uM respectively | L1210 inactive at 100 uM and 1000 uM respectively | Human adenovirus 2 inactive at 100 uM and 1000 uM respectively | Semliki Forest virus inactive at 100 uM and 1000 uM respectively | Homo sapiens inactive at 100 uM and 1000 uM respectively

Nc1ccc2nnc([C@@H]3O[C@H](CO)[C@@H](O)[C@H]3O)n2n1
inactive: CCRF-CEM inactive at 100 uM and 1000 uM respectively | Human alphaherpesvirus 2 inactive at 100 uM and 1000 uM respectively | Visna-maedi virus inactive at 100 uM and 1000 uM respectively | Influenza A virus inactive at 100 uM and 1000 uM respectively | Human respirovirus 3 inactive at 100 uM and 1000 uM respectively | Human rhinovirus 1A inactive at 100 uM and 1000 uM respectively | L1210 inactive at 100 uM and 1000 uM respectively | Human adenovirus 2 inactive at 100 uM and 1000 uM respectively | Semliki Forest virus inactive at 100 uM and 1000 uM respectively | Homo sapiens inactive at 100 uM and 1000 uM respectively

COc1ccc2nnc([C@@H]3O[C@H](CO)[C@@H](O)[C@H]3O)n2n1
inactive: CCRF-CEM inactive at 100 uM and 1000 uM respectively | Human alphaherpesvirus 2 inactive at 100 uM and 1000 uM respectively | Visna-maedi virus inactive at 100 uM and 1000 uM respectively | Influenza A virus inactive at 100 uM and 1000 uM respectively | Human respirovirus 3 inactive at 100 uM and 1000 uM respectively | Human rhinovirus 1A inactive at 100 uM and 1000 uM respectively | L1210 inactive at 100 uM and 1000 uM respectively | Human adenovirus 2 inactive at 100 uM and 1000 uM respectively | Semliki Forest virus inactive at 100 uM and 1000 uM respectively | Homo sapiens inactive at 100 uM and 1000 uM respectively

O=c1ccc2nnc([C@@H]3O[C@H](CO)[C@@H](O)[C@H]3O)n2[nH]1
inactive: CCRF-CEM inactive at 100 uM and 1000 uM respectively | Human alphaherpesvirus 2 inactive at 100 uM and 1000 uM respectively | Visna-maedi virus inactive at 100 uM and 1000 uM respectively | Influenza A virus inactive at 100 uM and 1000 uM respectively | Human respirovirus 3 inactive at 100 uM and 1000 uM respectively | Human rhinovirus 1A inactive at 100 uM and 1000 uM respectively | L1210 inactive at 100 uM and 1000 uM respectively | Human adenovirus 2 inactive at 100 uM and 1000 uM respectively | Semliki Forest virus inactive at 100 uM and 1000 uM respectively | Homo sapiens inactive at 100 uM and 1000 uM respectively

Nc1cnn2c([C@@H]3O[C@H](CO)[C@@H](O)[C@H]3O)nnc2c1Cl
inactive: CCRF-CEM inactive at 100 uM and 1000 uM respectively | Human alphaherpesvirus 2 inactive at 100 uM and 1000 uM respectively | Visna-maedi virus inactive at 100 uM and 1000 uM respectively | Influenza A virus inactive at 100 uM and 1000 uM respectively | Human respirovirus 3 inactive at 100 uM and 1000 uM respectively | Human rhinovirus 1A inactive at 100 uM and 1000 uM respectively | L1210 inactive at 100 uM and 1000 uM respectively | Human adenovirus 2 inactive at 100 uM and 1000 uM respectively | Semliki Forest virus inactive at 100 uM and 1000 uM respectively | Homo sapiens inactive at 100 uM and 1000 uM respectively

Nc1cnn2c([C@@H]3O[C@H](CO)[C@@H](O)[C@H]3O)nnc2c1
inactive: CCRF-CEM inactive at 100 uM and 1000 uM respectively | Human alphaherpesvirus 2 inactive at 100 uM and 1000 uM respectively | Visna-maedi virus inactive at 100 uM and 1000 uM respectively | Influenza A virus inactive at 100 uM and 1000 uM respectively | Human respirovirus 3 inactive at 100 uM and 1000 uM respectively | Human rhinovirus 1A inactive at 100 uM and 1000 uM respectively | L1210 inactive at 100 uM and 1000 uM respectively | Human adenovirus 2 inactive at 100 uM and 1000 uM respectively | Semliki Forest virus inactive at 100 uM and 1000 uM respectively | Homo sapiens inactive at 100 uM and 1000 uM respectively
